One experiment has as its target FGFR2 (Homo sapiens, UniProt P21802). Put plainly: In vitro activity inhibition test for kinase FGFR2. The experiment is classed as biochemical. The settings on record: kinase assay, 25° C.; read-out: Inhibition of separase IC50 (nM) FGFR2.
A further experiment concerns the target FGFR1 (Homo sapiens, UniProt P11362). Put plainly: In vitro activity inhibition test for kinase FGFR1.
A further experiment addresses FGFR4 (Homo sapiens, UniProt P22455). The experiment is described as follows: In vitro activity inhibition test for kinase FGFR4.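 Further: caliper mobility shift assay of FGFR4 kinase activity, compounds tested as 10-point 4-fold dilution series with 0.5% DMSO final.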
In the next experiment the target is FGFR3 (Homo sapiens, UniProt P22607). The experiment is described as follows: In vitro activity inhibition test for kinase FGFR3.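 Further: FGFR3 kinase activity read by Caliper mobility shift assay, compounds run as 10-point 4-fold dilution series, final DMSO 0.5%.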
Sequence of FGFR3 (P22607 23-806): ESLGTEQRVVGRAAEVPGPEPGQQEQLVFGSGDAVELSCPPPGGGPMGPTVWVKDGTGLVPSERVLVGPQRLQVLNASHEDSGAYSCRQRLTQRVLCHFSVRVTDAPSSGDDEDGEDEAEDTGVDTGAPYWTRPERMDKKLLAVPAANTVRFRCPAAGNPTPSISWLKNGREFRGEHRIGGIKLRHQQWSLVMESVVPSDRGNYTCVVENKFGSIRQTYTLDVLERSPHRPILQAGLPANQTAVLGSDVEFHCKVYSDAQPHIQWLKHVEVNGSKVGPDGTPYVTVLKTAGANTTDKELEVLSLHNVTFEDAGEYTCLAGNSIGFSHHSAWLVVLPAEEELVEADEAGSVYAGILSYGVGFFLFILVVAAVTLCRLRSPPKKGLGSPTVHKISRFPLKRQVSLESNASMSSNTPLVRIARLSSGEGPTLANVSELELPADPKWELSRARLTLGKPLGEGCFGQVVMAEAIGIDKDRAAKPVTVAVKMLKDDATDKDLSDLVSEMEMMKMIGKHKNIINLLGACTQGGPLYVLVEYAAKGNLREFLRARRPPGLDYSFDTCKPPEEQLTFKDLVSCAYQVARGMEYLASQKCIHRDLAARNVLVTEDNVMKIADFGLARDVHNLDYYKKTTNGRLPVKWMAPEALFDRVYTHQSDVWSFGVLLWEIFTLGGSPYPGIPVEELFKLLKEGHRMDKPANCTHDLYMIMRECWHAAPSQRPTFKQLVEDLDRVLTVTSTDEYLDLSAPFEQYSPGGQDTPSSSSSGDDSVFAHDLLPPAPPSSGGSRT

Like-named read-outs stand apart in the source and are kept apart here. Bounds are passed on as bounds.

Sequence of FGFR1 (P11362 22-822): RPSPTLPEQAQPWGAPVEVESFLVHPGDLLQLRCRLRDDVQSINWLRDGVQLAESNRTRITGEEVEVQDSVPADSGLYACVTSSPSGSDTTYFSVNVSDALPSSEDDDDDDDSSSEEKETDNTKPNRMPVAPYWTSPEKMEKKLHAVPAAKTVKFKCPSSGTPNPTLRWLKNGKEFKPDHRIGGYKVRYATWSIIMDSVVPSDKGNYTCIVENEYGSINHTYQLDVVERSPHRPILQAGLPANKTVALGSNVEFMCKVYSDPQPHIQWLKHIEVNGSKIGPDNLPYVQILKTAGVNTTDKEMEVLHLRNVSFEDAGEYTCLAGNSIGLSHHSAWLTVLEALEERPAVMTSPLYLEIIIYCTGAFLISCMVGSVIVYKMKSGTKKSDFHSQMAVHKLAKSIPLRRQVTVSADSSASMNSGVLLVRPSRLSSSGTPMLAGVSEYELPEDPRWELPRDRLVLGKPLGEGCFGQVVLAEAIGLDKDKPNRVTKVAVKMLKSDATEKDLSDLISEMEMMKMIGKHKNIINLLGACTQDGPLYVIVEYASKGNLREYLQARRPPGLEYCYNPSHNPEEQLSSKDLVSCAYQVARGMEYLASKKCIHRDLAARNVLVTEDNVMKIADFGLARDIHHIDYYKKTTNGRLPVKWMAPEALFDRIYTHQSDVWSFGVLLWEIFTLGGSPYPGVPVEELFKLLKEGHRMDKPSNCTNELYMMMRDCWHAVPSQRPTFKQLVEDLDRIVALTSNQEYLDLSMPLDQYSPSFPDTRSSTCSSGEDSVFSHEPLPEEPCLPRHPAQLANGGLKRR
Sequence of FGFR4 (P22455 22-802): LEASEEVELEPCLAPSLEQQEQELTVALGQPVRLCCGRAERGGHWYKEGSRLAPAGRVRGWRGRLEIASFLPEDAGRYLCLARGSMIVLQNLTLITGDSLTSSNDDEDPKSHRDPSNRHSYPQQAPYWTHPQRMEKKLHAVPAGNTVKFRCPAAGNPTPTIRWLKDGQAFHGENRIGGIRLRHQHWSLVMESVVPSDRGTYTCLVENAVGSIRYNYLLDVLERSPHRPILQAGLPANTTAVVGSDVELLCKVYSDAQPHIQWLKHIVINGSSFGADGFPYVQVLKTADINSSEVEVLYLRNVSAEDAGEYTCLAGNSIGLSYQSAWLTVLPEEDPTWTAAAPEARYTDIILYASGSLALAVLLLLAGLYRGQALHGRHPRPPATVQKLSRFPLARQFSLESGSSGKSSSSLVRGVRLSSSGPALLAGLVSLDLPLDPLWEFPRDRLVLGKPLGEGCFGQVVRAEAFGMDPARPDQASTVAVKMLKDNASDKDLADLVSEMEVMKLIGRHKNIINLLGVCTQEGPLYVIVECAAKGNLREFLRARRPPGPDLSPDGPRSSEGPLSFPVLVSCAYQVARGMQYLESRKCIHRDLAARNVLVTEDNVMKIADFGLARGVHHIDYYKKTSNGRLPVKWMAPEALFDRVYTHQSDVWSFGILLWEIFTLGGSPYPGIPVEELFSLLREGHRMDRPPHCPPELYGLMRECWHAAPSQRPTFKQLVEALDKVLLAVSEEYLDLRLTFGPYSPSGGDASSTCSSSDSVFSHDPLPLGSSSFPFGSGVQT
Sequence of FGFR2 (P21802 22-821): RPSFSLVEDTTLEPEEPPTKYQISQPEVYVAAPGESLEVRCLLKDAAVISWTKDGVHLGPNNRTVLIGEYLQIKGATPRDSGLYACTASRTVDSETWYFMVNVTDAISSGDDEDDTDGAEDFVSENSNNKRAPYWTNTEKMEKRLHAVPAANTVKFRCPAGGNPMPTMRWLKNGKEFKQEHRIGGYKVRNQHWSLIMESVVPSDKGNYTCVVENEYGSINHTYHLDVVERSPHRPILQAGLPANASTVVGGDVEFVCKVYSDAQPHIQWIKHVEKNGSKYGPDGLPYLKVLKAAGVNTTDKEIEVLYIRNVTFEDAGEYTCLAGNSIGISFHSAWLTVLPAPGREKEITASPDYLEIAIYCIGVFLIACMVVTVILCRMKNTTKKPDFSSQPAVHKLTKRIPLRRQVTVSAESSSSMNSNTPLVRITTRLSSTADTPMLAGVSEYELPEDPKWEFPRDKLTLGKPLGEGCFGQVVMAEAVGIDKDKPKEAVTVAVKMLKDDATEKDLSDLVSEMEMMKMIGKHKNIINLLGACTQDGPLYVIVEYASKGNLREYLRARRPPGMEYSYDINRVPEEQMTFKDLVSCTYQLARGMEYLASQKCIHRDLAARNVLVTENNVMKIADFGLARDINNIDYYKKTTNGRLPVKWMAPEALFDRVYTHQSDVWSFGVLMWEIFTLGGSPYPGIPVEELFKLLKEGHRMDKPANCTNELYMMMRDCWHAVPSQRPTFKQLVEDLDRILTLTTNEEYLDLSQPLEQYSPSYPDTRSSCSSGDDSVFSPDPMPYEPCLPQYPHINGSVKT
Method for FGFR1: (§1) In Vitro Activity Inhibition Test for Kinases FGFR1, FGFR2, FGFR3 and FGFR4
(§2) The activity of FGFR1, FGFR2, FGFR3 and FGFR4 protein kinases was determined by Caliper mobility shift assay. Perform a 4-fold gradient dilution from a working concentration of 0.2 mM in DMSO, diluting 10 concentrations. Add 2 μL of compound to 78 μL of 1× compound buffer. There were 10 points each for the negative control and the positive control. Shake the board on the rocker for 20 min. […] The final concentration of DMSO was 0.5%.
Method for FGFR3: as §1, §2
Method for FGFR4: as §1, §2

One may read the IC50 as the midpoint of a concentration-inhibition curve. With “2-(1-acryloylpyrrolidin-3-yl)-4-((3,5-dimethoxyphenyl)ethynyl)pyrimidine-5-carboxamide [Compound 19]”, the IC50 at FGFR2 was less than 10 nM; at FGFR1 (read-out: Inhibition of FGFR1 IC50 (nM) FGFR1, kinase assay, 25° C.) it was less than 10 nM; on FGFR4 (read-out: Inhibition of kinase IC50 (nM) FGFR4, kinase assay, 25° C.), less than 10 nM; at FGFR3 (read-out: Inhibition IC50 (nM) FGFR3, kinase assay, 25° C.) it was less than 10 nM.
On to `C=CC(=O)N1CC[C@H](Nc2nccc(C#Cc3cc(OC)cc(OC)c3)n2)C1` [Compound 1, (S)-1-(3-((4-((3,5-dimethoxyphenyl)ethynyl)pyrimidin-2-yl)amino)pyrrolidin-1-yl)prop-2-en-1-one], for which the IC50 was in the range of 10 to 100 nM at FGFR2, 10 to 100 nM against FGFR1, 10 to 100 nM at FGFR4 and 100 to 500 nM on FGFR3.
On to `C=CC(=O)N1CC[C@H](Nc2ncc(Br)c(C#Cc3cc(OC)cc(OC)c3)n2)C1` [Compound 2, (S)-1-(3-((5-bromo-4-((3,5-dimethoxyphenyl)ethynyl)pyrimidin-2-yl)amino)pyrrolidin-1-yl)prop-2-en-1-one], for which the IC50 on FGFR2 was 10 to 100 nM; on FGFR1 it was 10 to 100 nM; against FGFR4 it was 100 to 500 nM; at FGFR3, 100 to 500 nM.
With `C=CC(=O)N1CC[C@H](Nc2ncc(F)c(C#Cc3cc(OC)cc(OC)c3)n2)C1` [Compound 3, (S)-1-(3-((4-((3,5-dimethoxyphenyl)ethynyl)-5-fluoropyrimidin-2-yl)amino)pyrrolidin-1-yl)prop-2-en-1-one], the IC50 on FGFR2, against FGFR1, on FGFR4 and against FGFR3 was 10 to 100 nM each time.
Turning to `C=CC(=O)N1CC[C@H](Nc2ncc(C(F)(F)F)c(C#Cc3cc(OC)cc(OC)c3)n2)C1` [Compound 4, (S)-1-(3-((4-((3,5-dimethoxyphenyl)ethynyl)-5-(trifluoromethyl)pyrimidin-2-yl)amino)pyrrolidin-1-yl)prop-2-en-1-one], the IC50 was 100 to 500 nM on FGFR2, 10 to 100 nM at FGFR1, 10 to 100 nM at FGFR4 and 10 to 100 nM on FGFR3.
Turning to `C=CC(=O)N1CC[C@H](Nc2ncc(C#N)c(C#Cc3cc(OC)cc(OC)c3)n2)C1` [Compound 5, (S)-2-((1-acryloylpyrrolidin-3-yl)amino)-4-((3,5-dimethoxyphenyl)ethynyl)pyrimidine-5-carbonitrile], the IC50 at FGFR2 was in the range of 10 to 100 nM; against FGFR1, 10 to 100 nM; against FGFR4 it was 10 to 100 nM; at FGFR3 it was 100 to 500 nM.
`C=CC(=O)N1CC[C@H](Nc2nc(N)c(C(N)=O)c(C#Cc3cc(OC)cc(OC)c3)n2)C1` [Compound 6, (S)-2-((1-acryloylpyrrolidin-3-yl)amino)-4-amino-6-((3,5-dimethoxyphenyl)ethynyl)pyrimidine-5-carboxamide]: the IC50 on FGFR2, at FGFR1, on FGFR4 and against FGFR3 was less than 10 nM throughout.
Consider `C=CC(=O)N1CC2(CC(Nc3nc(N)c(C(N)=O)c(C#Cc4cc(OC)cc(OC)c4)n3)C2)C1` [Compound 7, 2-((2-acryloyl-2-azaspiro[3.3]heptan-6-yl)amino)-4-amino-6-((3,5-dimethoxyphenyl)ethynyl)pyrimidine-5-carboxamide], for which the IC50 at FGFR2, on FGFR1, against FGFR4 and at FGFR3 was 10 to 100 nM each time.
Turning to `C=CC(=O)N1CCC2(CC(Nc3nc(N)c(C(N)=O)c(C#Cc4cc(OC)cc(OC)c4)n3)C2)C1` (stereo not shown) [Compound 8, 2-((6-acryloyl-6-azaspiro[3.4]octan-2-yl)amino)-4-amino-6-((3,5-dimethoxyphenyl)ethynyl)pyrimidine-5-carboxamide], the IC50 at FGFR2 lay within 10 to 100 nM; against FGFR1, 100 to 500 nM; on FGFR4, 100 to 500 nM; at FGFR3, 10 to 100 nM.
For `C=CC(=O)N1CCC2(CC1)CC(Nc1nc(N)c(C(N)=O)c(C#Cc3cc(OC)cc(OC)c3)n1)C2` [Compound 9, 2-((7-acryloyl-7-azaspiro[3.5]nonan-2-yl)amino)-4-amino-6-((3,5-dimethoxyphenyl)ethynyl)pyrimidine-5-carboxamide], the IC50 lay in the range of 10 to 100 nM at FGFR2, 100 to 500 nM on FGFR1, 100 to 500 nM at FGFR4 and 10 to 100 nM on FGFR3.
Take `C=CC(=O)N1CCC(Nc2nc(N)c(C(N)=O)c(C#Cc3cc(OC)cc(OC)c3)n2)CC1` [Compound 10, 2-((1-acryloylpiperidin-4-yl)amino)-4-amino-6-((3,5-dimethoxyphenyl)ethynyl)pyrimidine-5-carboxamide]: the IC50 fell in the range of 10 to 100 nM at FGFR2, 10 to 100 nM against FGFR1, 10 to 100 nM against FGFR4 and 100 to 500 nM against FGFR3.
For `C=CC(=O)N1CCC[C@H](Nc2nc(N)c(C(N)=O)c(C#Cc3cc(OC)cc(OC)c3)n2)C1` [Compound 11, (S)-2-((1-acryloylpiperidin-3-yl)amino)-4-amino-6-((3,5-dimethoxyphenyl)ethynyl)pyrimidine-5-carboxamide], the half-inhibitory concentration (IC50) lay within 10 to 100 nM on FGFR2, 10 to 100 nM on FGFR1, 10 to 100 nM against FGFR4 and 100 to 500 nM on FGFR3.
`CC#CC(=O)N1CC[C@H](Nc2nc(N)c(C(N)=O)c(C#Cc3cc(OC)cc(OC)c3)n2)C1` [Compound 12, (S)-4-amino-2-((1-(but-2-ynoyl)pyrrolidin-3-yl)amino)-6-((3,5-dimethoxyphenyl)ethynyl)pyrimidine-5-carboxamide]: the IC50 on FGFR2, at FGFR1, on FGFR4 and against FGFR3 was less than 10 nM throughout.
For the compound `CC#CC(=O)N1CC[C@H](Nc2ncc(Br)c(C#Cc3cc(OC)cc(OC)c3)n2)C1` [Compound 13, (S)-1-(3-((5-bromo-4-((3,5-dimethoxyphenyl)ethynyl)pyrimidin-2-yl)amino)pyrrolidin-1-yl)but-2-yn-1-one], the IC50 at FGFR2 was in the range of 10 to 100 nM; against FGFR1, 10 to 100 nM; against FGFR4, 100 to 500 nM; against FGFR3, 10 to 100 nM.
For the compound `CC#CC(=O)N1CC[C@H](Nc2ncc(C(F)(F)F)c(C#Cc3cc(OC)cc(OC)c3)n2)C1` [Compound 14, (S)-1-(3-((4-((3,5-dimethoxyphenyl)ethynyl)-5-(trifluoromethyl)pyrimidin-2-yl)amino)pyrrolidin-1-yl)but-2-yn-1-one], the IC50 on FGFR2 was 10 to 100 nM; against FGFR1, 10 to 100 nM; at FGFR4, 10 to 100 nM; against FGFR3 it was 100 to 500 nM.
Turning to `C=CC(=O)N1CC[C@@H](Nc2nc(N)c(C(N)=O)c(C#Cc3cc(OC)cc(OC)c3)n2)C1` [Compound 15, (R)-2-((1-acryloylpyrrolidin-3-yl)amino)-4-amino-6-((3,5-dimethoxyphenyl)ethynyl)pyrimidine-5-carboxamide], the IC50 at FGFR2, against FGFR1, against FGFR4 and against FGFR3 was less than 10 nM each time.
On to `C=CC(=O)N1CC[C@H](Nc2ncc(C(N)=O)c(C#Cc3cc(OC)cc(OC)c3)n2)C1` [Compound 16, (S)-2-((1-acryloylpyrrolidin-3-yl)amino)-4-((3,5-dimethoxyphenyl)ethynyl)pyrimidine-5-carboxamide], for which the IC50 at FGFR2 is less than 10 nM; on FGFR1, less than 10 nM; on FGFR4, 10 to 100 nM; against FGFR3, 10 to 100 nM.
For the compound `C=CC(=O)N[C@H]1CCN(c2nc(N)c(C(N)=O)c(C#Cc3cc(OC)cc(OC)c3)n2)C1` [Compound 17, (S)-2-(3-acrylamidopyrrolidin-1-yl)-4-amino-6-((3,5-dimethoxyphenyl)ethynyl)pyrimidine-5-carboxamide], the IC50 on FGFR2, on FGFR1, at FGFR4 and at FGFR3 was less than 10 nM in each case.
As to `C=CC(=O)N1CCC(c2nc(N)c(C(N)=O)c(C#Cc3cc(OC)cc(OC)c3)n2)C1` (stereo not shown) [Compound 18, 2-(1-acryloylpyrrolidin-3-yl)-4-amino-6-((3,5-dimethoxyphenyl)ethynyl)pyrimidine-5-carboxamide], the IC50 is less than 10 nM at FGFR2, 10 to 100 nM against FGFR1, less than 10 nM at FGFR4 and less than 10 nM against FGFR3.
With `CC#CC(=O)N1CCC[C@H](n2cc(C#Cc3cc(OC)cc(OC)c3)c3c(N)n[nH]c(=O)c32)C1` [Compound 21, (S)-4-amino-1-(1-(but-2-ynoyl)piperidin-3-yl)-3-((3,5-dimethoxyphenyl)ethynyl)-1,6-dihydro-7H-pyrrolo[2,3-d]pyridazin-7-one], the IC50 at FGFR2, against FGFR1, against FGFR4 and against FGFR3 was less than 10 nM throughout.
As for `CC#CC(=O)N1CC[C@H](n2cc(C#Cc3cc(OC)cc(OC)c3)c3c(N)n[nH]c(=O)c32)C1` [Compound 23, (S)-4-amino-1-(1-(but-2-ynoyl)pyrrolidin-3-yl)-3-((3,5-dimethoxyphenyl)ethynyl)-1,6-dihydro-7H-pyrrolo[2,3-d]pyridazin-7-one], the IC50 on FGFR2, against FGFR1, on FGFR4 and at FGFR3 was less than 10 nM throughout.
In the case of `CC#CC(=O)N1CCC[C@H](n2nc(C#Cc3cc(OC)cc(OC)c3)c3c(N)n[nH]c(=O)c32)C1` [Compound 25, (S)-4-amino-1-(1-(but-2-ynoyl)piperidin-3-yl)-3-((3,5-dimethoxyphenyl)ethynyl)-1,6-dihydro-7H-pyrazolo[3,4-d]pyridazin-7-one], the IC50 at FGFR2, at FGFR1, against FGFR4 and against FGFR3 was less than 10 nM each time.

For the origin of these results see patent US20240109896A1, “FGFR KINASE INHIBITOR AND USE THEREOF” (YA THERAPEUTICS INC, priority 2021, published 2024).
